Consider four compounds from patent US6384249B1, “Compounds and methods for stabilization of furfural compositions” (Hercules, Inc., priority 2000, dated 2002).

Where “and” joins values, the source holds several entries; their conditions need not be identical. Equal values may be shown once.

The experiment is described as follows: Accelerated air oxidation of furfural, Total Acid Number (TAN) by potentiometric titration. As to conditions: 25 psig air, 300° F., 2 hours. How it is done:
In this example, distilled furfural was treated with prospective stabilizers, over-pressured with 25 psig of air, heated to 300° F., and held at temperature for 2 hours to allow for an accelerated rate of furfural oxidation. Total Acid Number (TAN) titrations were then conducted by potentiometric titration on the treated furfural samples, an untreated (blank), and a sample of the original distilled material (control), which was not heated to 300° F. The acid number, expressed as mg KOH/g, is a measure of the acid generated during air oxidation of furfural. Performance of inhibitors was expressed as a percent inhibition by the following equation: […]

Regarding `Cc1cc(C(C)(C)C)c(O)c(C(C)(C)C)c1` [Compound #3, 2,6-di-tert-butyl-4-methylphenol], the “% Inhibition @ ppmA” value reads like this: (250 ppmA stabilizer) −10%; (500 ppmA stabilizer) −5%; (1000 ppmA stabilizer) 12%.

Consider `CCC(C)CC(C)Nc1ccc(Nc2ccccc2)cc1` (stereo not shown) [Compound #2], for which the “% Inhibition @ ppmA” value was determined as 15% (250 ppmA stabilizer), 37% (500 ppmA stabilizer) and 56% (1000 ppmA stabilizer).

For `CC(C)CC(C)N=C1C=CC(=Nc2ccccc2)C=C1` (stereo not shown) [Compound #4], the “% Inhibition @ ppmA” value by setting is: (250 ppmA stabilizer) 48%; (500 ppmA stabilizer) 76%; (1000 ppmA stabilizer) 95%.

As for `CCC(C)Nc1ccc(NC(C)CC)cc1` (stereo not shown) [Compound #1], the “% Inhibition @ ppmA” value was 69% (250 ppmA stabilizer); 106% and 114% (500 ppmA stabilizer); 88% and 170% (1000 ppmA stabilizer); 57% (2000 ppmA stabilizer).
